{
  "source": "patent US12714702B2",
  "about": "“Compositions and methods for treating or preventing pulmonary hypertension” (priority 2020, dated 2026)",
  "key": {"[1]": {"tested_on": "serum-starved bovine PASMCs", "assay": "Annexin V FITC assay (apoptotic induction)", "type": "cell-based", "conditions": "2.5 or 5 μM, 24 hours, concentration-dependent", "experimental": "In FIGS. 9A-9B, PASMC were serum starved for 24 hours, and then treated with varying QA concentrations in serum-starved media. Quantification was performed using Cyto-ID® autophagy kit and Annexin-V/FITC apoptosis kit. […] In FIG. 9C, autophagy inhibition by QA (5 μM) as depicted by increase in LC3B-II concentration in bovine high altitude PASMC quantified by western blot assay kit. Data represent mean±SD (n=3). *p<0.05.\nBovine PASMC were serum starved in FBS-free media for 24 hours, and then treated with QA for 24 hours at various concentrations (0, 2.5, or 5 μM). Annexin V levels were measured with Annexin V FITC assay kit (#600300, Cayman Chemical, Ann Arbor, MI) according to manufacturer's manual.\nAn apoptotic induction assay, i.e., Caspase-3 assay was performed to understand QA's impact on cellular apoptosis in primary human PASMCs following 6-hour treatment. […] Moreover, another apoptotic induction assay, i.e., Annexin V FITC assay was also used to measure the effects of QA on serum-starved bovine PASMCs.\nIn other independent experiments, QA's ability to modulate autophagy/apoptotic pathways was quantified in vitro in serum-starved bovine PASMC cells. Similar results were observed."}, "[2]": {"tested_on": "pulmonary arteries of MCT-induced PAH animals", "assay": "MCT model, trichrome staining of lung sections and medial wall thickness", "type": "in vivo, rat", "conditions": "MCT rats", "excerpt": "At the end of treatment period with QA, animals were sacrificed. Chest was surgically opened to expose rat lungs. Lung tissues were collected, and blinded tissues were sectioned by Reveal Bio (San Diego, CA) at 5 μm thickness. 2 tissue sections for each animal were earmarked for Trichrome staining; and 8 more sections were provided blank for custom staining.\nTissue sections were stained using trichrome staining to visualize pulmonary arteries for all treatment and control groups. Stained lung sections were imaged using Zeiss Axio Scope A1 microscope equipped with Axiocam 506 color camera and Zeiss Zen 2.3 software. Medial wall thickness for similar sized pulmonary arteries was measured using a Motic BA210 microscope and measurements were made using Motic Image plus 2.0 software. Five pulmonary artery walls were analyzed per animal (n=2 to 5)\nAdditionally, lung tissue sections from the MCT-induced PAH lung tissue were examined using trichrome staining.\nMedial wall thickness of pulmonary arteries was measured using the trichrome stained microscopic images."}, "[3]": {"tested_on": "Ki67, PCNA, vWF, α-SMA in MCT-induced PAH animal lung tissue", "assay": "MCT model, immunofluorescence of lung tissue", "type": "in vivo, rat", "conditions": "MCT rats", "experimental": "FIGS. 12A-12B show immunofluorescence imaging for MCT-induced PAH animal lung tissue slides.\n(§1) Preclinical in-vivo studies for QA were earlier performed at a dose of 10 mg/kg once-a-day in monocrotaline (MCT) induced therapeutic PAH model. Hemodynamic parameters were collected and lung tissues were also collected and were sectioned for visualizing the impact of QA treatment on various PAH biomarkers in-vivo.\nOCT compound embedded Tissue sections for control animals, MCT induced PAH animals and QA treated animals were further subjected to immunofluorescent staining to analyze expression levels of essential molecular markers. Briefly, tissue sections were washed twice with 1×PBS followed by blocking for one hour using a blocking buffer (Cell Signaling Technology, Danvers, MA, USA). Followed by blocking, tissue sections were stained with respective primary antibodies overnight; VWF #ab15419, 1:100 (abcam), α-SMA #489385, 1:500 (CST), Ki67 #9129S (CST), 1:250 and PCNA #2586S (CST), 1:100. Following day, tissue sections were washed with 1×PBS twice followed by incubation with Anti-rabbit IgG (H+L), F(ab′)2 Fragment (Alexa Fluor® 488 Conjugate) #4412S 1:250 (CST) and Anti-mouse IgG (H+L), F(ab′)2 Fragment (Alexa Fluor® 594 Conjugate) #8890S, 1:500 (CST) for one hour. Further, sections were washed with 1×PBS twice and the nuclei were stained with DAPI using Vectashield hardset antifade mounting medium with DAPI (Vector Laboratories, Burlingame, CA, USA). Tissues were imaged using Zeiss Axioplan 2 fluorescence microscope (Carl Zeiss AG, Jena, Germany).\nImmunofluorescence imaging of the MCT-induced PAH animal lung tissue slides was also performed."}, "[4]": {"tested_on": "Ki67, PCNA, vWF, α-SMA in SU5416/Hypoxia-induced PAH animal lung tissue", "assay": "SU5416/hypoxia model, immunofluorescence of lung tissue", "type": "in vivo, rat", "conditions": "SU5416/hypoxia rats", "experimental": "as §1, with “a SU5416/Hypoxia-induced preventative/prophylactic” for “monocrotaline (MCT) induced therapeutic”\nParaffin embedded tissue sections for control animals, hypoxia induced PAH animals and QA treated animals were further subjected to immunofluorescent staining to analyze expression levels of essential molecular markers. Deparaffinization of tissues was done by exposing tissue sections to a solution of xylene for 3 minutes twice followed by washing with 200 proof absolute 99.8% ethanol and 50% ethanol. Tissues were further washed with 1×PBS twice to ensure complete deparaffinization. Similar protocol was followed hereon for immunofluorescent staining of tissue sections."}, "[5]": {"tested_on": "IL-6, Acta2, serpinel, Id3, BMPR2 mRNA", "assay": "SU5416/hypoxia model, mRNA expression by real time PCR", "type": "in vivo, rat", "conditions": "SU5416/hypoxia rats"}, "[6]": {"tested_on": "p62, BMPR2, LC3B-II, p21, p65, phospho-AKT, phospho-p65 in right lung", "assay": "SU5416/hypoxia model, western blot of right lung homogenate", "type": "in vivo, rat", "excerpt": "FIGS. 18E-18F show western blot analysis of tissue (right lung) lysates for expression of various disease marker proteins including p62, BMPR2, LC3B-II, p21, p65, p53, phosphorylated-p53 and phosphorylated-AKT using corresponding monoclonal antibodies.\nThe accumulation of p62, a protein degraded by autophagy pathways, is indicative of autophagy inhibition."}, "[7]": {"tested_on": "SU5416/hypoxia-induced PAH model", "conditions": "SU5416/hypoxia rats, QA 10 mg/kg i.p. once-a-day for 3 weeks from Day 1"}},
  "data": [
    {"compound": "CCN(CC)CCCC(C)Nc1c2ccc(Cl)cc2nc2ccc(OC)cc12", "note": "(stereo not drawn) [QA, quinacrine]", "values": [
      {"measurement": "apoptotic induction (fluorescence intensity of Annexin-V stained cells)", "setting": "[1]", "result": "significantly enhanced apoptotic induction"},
      {"measurement": "medial wall thickness of pulmonary arteries", "setting": "[2]; compared to sham control animals", "result": "back to almost normal"},
      {"measurement": "collagen and muscular deposition in pulmonary arterioles", "setting": "[2]; trichrome staining", "result": "significant reduction"},
      {"measurement": "expression of Ki67", "setting": "[3]", "result": "reduction in expression"},
      {"measurement": "expression of PCNA", "setting": "[3]", "result": "reduction in expression"},
      {"measurement": "expression of vWF", "setting": "[3]; compared to control", "result": "did not show any reduction in expression"},
      {"measurement": "expression of α-smooth muscle actin (α-SMA)", "setting": "[3]; compared to control", "result": "did not show any reduction in expression"},
      {"measurement": "expression of Ki67", "setting": "[4]", "result": "reduction in expression"},
      {"measurement": "expression of PCNA", "setting": "[4]", "result": "reduction in expression"},
      {"measurement": "expression of vWF", "setting": "[4]", "result": "did not show any reduction in expression"},
      {"measurement": "expression of α-SMA", "setting": "[4]", "result": "did not show any reduction in expression"},
      {"measurement": "BMPR2 mRNA expression", "setting": "[5]", "result": "no significant changes"},
      {"measurement": "Acta2 gene (smooth muscle actin-alpha) expression", "setting": "[5]; real time PCR", "result": "decreased"},
      {"measurement": "IL-6 mRNA levels", "setting": "[5]; real time PCR", "result": "decreased"},
      {"measurement": "Id3 mRNA level", "setting": "[5]; real time PCR", "result": "did not significantly change"},
      {"measurement": "mRNA levels of serpinel", "setting": "[5]; real time PCR", "result": "reduced"},
      {"measurement": "autophagy marker LC3B-II", "setting": "[6]; right lung homogenate", "result": "accumulated"},
      {"measurement": "autophagy marker p62", "setting": "[6]; right lung homogenate", "result": "accumulated"},
      {"measurement": "accumulation of BMPR2", "setting": "[6]; right lung homogenate, in comparison to control animals", "result": "> 2", "unit": "fold"},
      {"measurement": "expression of p21 protein", "setting": "[6]; tissue lysates", "result": "significant increase"},
      {"measurement": "expression of phospho-AKT", "setting": "[6]; tissue lysates", "result": "decreased"},
      {"measurement": "expression of phospho-p65", "setting": "[6]; tissue lysates", "result": "decreased"},
      {"measurement": "p65", "setting": "[6]; tissue lysates", "result": "significant reduction"},
      {"measurement": "RVSP", "setting": "[7]", "result": "45.6±7.9", "unit": "mmHg"}
    ]}
  ]
}
